Measured values reported in PubChem BioAssay (NCI).
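Cultured in 96-well plates, cells were exposed to test compound for 48 hours across five concentrations. TGI denotes the concentration required for complete inhibition of growth.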

Columns and labels:
Assay in all cases: DTP human tumour cell line panel, 48 h
MCF7 breast = tested on: MCF7 breast
MDA-N = tested on: MDA-N
SK-MEL-5 melanoma = tested on: SK-MEL-5 melanoma
A549 NSCLC = tested on: A549 NSCLC
MALME-3M melanoma = tested on: MALME-3M melanoma
OVCAR-4 ovarian = tested on: OVCAR-4 ovarian
MDA-MB-435 = tested on: MDA-MB-435
SR leukemia = tested on: SR leukemia
SK-MEL-2 melanoma = tested on: SK-MEL-2 melanoma
MOLT-4 leukemia = tested on: MOLT-4 leukemia
K-562 leukemia = tested on: K-562 leukemia
SK-MEL-28 melanoma = tested on: SK-MEL-28 melanoma
SN12C renal = tested on: SN12C renal
SF-295 CNS = tested on: SF-295 CNS
PC-3 prostate = tested on: PC-3 prostate
786-0 renal = tested on: 786-0 renal
HT29 colon = tested on: HT29 colon
RPMI-8226 leukemia = tested on: RPMI-8226 leukemia
SW-620 colon = tested on: SW-620 colon
HCT-15 colon = tested on: HCT-15 colon
SF-268 CNS = tested on: SF-268 CNS
COLO 205 colon = tested on: COLO 205 colon
TK-10 renal = tested on: TK-10 renal
DU-145 prostate = tested on: DU-145 prostate
CAKI-1 renal = tested on: CAKI-1 renal
KM12 colon = tested on: KM12 colon
RXF 393 renal = tested on: RXF 393 renal
OVCAR-5 ovarian = tested on: OVCAR-5 ovarian
HL-60(TB) leukemia = tested on: HL-60(TB) leukemia
HS 578T breast = tested on: HS 578T breast
NCI-H522 lung = tested on: NCI-H522 lung
M14 melanoma = tested on: M14 melanoma
NCI-H226 lung = tested on: NCI-H226 lung
OVCAR-3 ovarian = tested on: OVCAR-3 ovarian
SK-OV-3 ovarian = tested on: SK-OV-3 ovarian
HOP-92 NSCLC = tested on: HOP-92 NSCLC
IGROV1 ovarian = tested on: IGROV1 ovarian
A498 renal = tested on: A498 renal
SNB-19 CNS = tested on: SNB-19 CNS
MDA-MB-231 breast = tested on: MDA-MB-231 breast
UO-31 renal = tested on: UO-31 renal
NCI-H23 lung = tested on: NCI-H23 lung
LOX IMVI melanoma = tested on: LOX IMVI melanoma
OVCAR-8 ovarian = tested on: OVCAR-8 ovarian
BT-549 breast = tested on: BT-549 breast
HCC-2998 colon = tested on: HCC-2998 colon
CCRF-CEM leukemia = tested on: CCRF-CEM leukemia
EKVX NSCLC = tested on: EKVX NSCLC
T-47D breast = tested on: T-47D breast
NCI/ADR-RES ovarian = tested on: NCI/ADR-RES ovarian
HCT-116 colon = tested on: HCT-116 colon
HOP-62 NSCLC = tested on: HOP-62 NSCLC
ACHN renal = tested on: ACHN renal
SNB-75 CNS = tested on: SNB-75 CNS
U251 CNS = tested on: U251 CNS
UACC-257 melanoma = tested on: UACC-257 melanoma
UACC-62 melanoma = tested on: UACC-62 melanoma
SF-539 CNS = tested on: SF-539 CNS
NCI-H460 lung = tested on: NCI-H460 lung

COc1ccc(OC)c(N2C(=O)/C(=C\c3ccccc3)SC2c2cc(OC)c(OC)c(OC)c2)c1 (stereo not drawn)
TGI (MCF7 breast): > 42.7 µM | TGI (MDA-N): 52.1 µM | TGI (SK-MEL-5 melanoma): > 100 µM | TGI (A549 NSCLC): > 100 µM | TGI (MALME-3M melanoma): > 100 µM | TGI (OVCAR-4 ovarian): > 100 µM | TGI (MDA-MB-435): > 75 µM | TGI (SR leukemia): > 100 µM | TGI (SK-MEL-2 melanoma): > 100 µM | TGI (MOLT-4 leukemia): > 100 µM | TGI (K-562 leukemia): > 100 µM | TGI (SK-MEL-28 melanoma): > 100 µM | TGI (SN12C renal): > 100 µM | TGI (SF-295 CNS): > 100 µM | TGI (PC-3 prostate): > 100 µM | TGI (786-0 renal): > 100 µM | TGI (HT29 colon): > 100 µM | TGI (RPMI-8226 leukemia): > 100 µM | TGI (SW-620 colon): > 100 µM | TGI (HCT-15 colon): > 100 µM | TGI (SF-268 CNS): > 100 µM | TGI (COLO 205 colon): > 100 µM | TGI (TK-10 renal): > 100 µM | TGI (DU-145 prostate): > 100 µM | TGI (CAKI-1 renal): > 100 µM | TGI (KM12 colon): > 100 µM | TGI (RXF 393 renal): > 31.4 µM | TGI (OVCAR-5 ovarian): > 100 µM | TGI (HL-60(TB) leukemia): > 100 µM | TGI (HS 578T breast): > 100 µM | TGI (NCI-H522 lung): 74.9 µM | TGI (M14 melanoma): > 100 µM | TGI (NCI-H226 lung): > 100 µM | TGI (OVCAR-3 ovarian): > 100 µM | TGI (SK-OV-3 ovarian): > 100 µM | TGI (HOP-92 NSCLC): > 100 µM | TGI (IGROV1 ovarian): > 100 µM | TGI (A498 renal): > 100 µM | TGI (SNB-19 CNS): > 100 µM | TGI (MDA-MB-231 breast): > 100 µM | TGI (UO-31 renal): > 100 µM | TGI (NCI-H23 lung): > 100 µM | TGI (LOX IMVI melanoma): > 100 µM | TGI (OVCAR-8 ovarian): > 100 µM | TGI (BT-549 breast): > 100 µM | TGI (HCC-2998 colon): > 100 µM | TGI (CCRF-CEM leukemia): > 100 µM | TGI (EKVX NSCLC): > 100 µM | TGI (T-47D breast): > 100 µM | TGI (NCI/ADR-RES ovarian): > 100 µM | TGI (HCT-116 colon): > 100 µM | TGI (HOP-62 NSCLC): > 100 µM | TGI (ACHN renal): 6.85 µM | TGI (SNB-75 CNS): > 100 µM | TGI (U251 CNS): > 100 µM | TGI (UACC-257 melanoma): > 100 µM

c1ccc(NNN2NC(c3ccccc3)C2c2ccccc2)cc1 (stereo not drawn)
TGI (MCF7 breast): > 100 µM | TGI (MDA-N): > 100 µM | TGI (SK-MEL-5 melanoma): > 100 µM | TGI (A549 NSCLC): > 100 µM | TGI (MALME-3M melanoma): > 100 µM | TGI (OVCAR-4 ovarian): > 100 µM | TGI (MDA-MB-435): > 100 µM | TGI (UACC-62 melanoma): > 100 µM | TGI (SR leukemia): > 100 µM | TGI (SK-MEL-2 melanoma): > 100 µM | TGI (MOLT-4 leukemia): > 100 µM | TGI (K-562 leukemia): > 100 µM | TGI (SK-MEL-28 melanoma): > 100 µM | TGI (SN12C renal): > 100 µM | TGI (SF-295 CNS): > 100 µM | TGI (PC-3 prostate): > 100 µM | TGI (786-0 renal): > 100 µM | TGI (HT29 colon): > 100 µM | TGI (RPMI-8226 leukemia): > 100 µM | TGI (SW-620 colon): > 100 µM | TGI (HCT-15 colon): > 100 µM | TGI (SF-268 CNS): > 100 µM | TGI (COLO 205 colon): > 100 µM | TGI (TK-10 renal): > 100 µM | TGI (DU-145 prostate): > 100 µM | TGI (CAKI-1 renal): > 100 µM | TGI (KM12 colon): > 100 µM | TGI (RXF 393 renal): > 100 µM | TGI (OVCAR-5 ovarian): > 100 µM | TGI (HL-60(TB) leukemia): > 100 µM | TGI (SF-539 CNS): > 100 µM | TGI (NCI-H460 lung): > 100 µM | TGI (HS 578T breast): > 100 µM | TGI (NCI-H522 lung): > 100 µM | TGI (M14 melanoma): > 100 µM | TGI (NCI-H226 lung): > 100 µM | TGI (OVCAR-3 ovarian): > 100 µM | TGI (SK-OV-3 ovarian): > 100 µM | TGI (HOP-92 NSCLC): > 100 µM | TGI (A498 renal): > 100 µM | TGI (SNB-19 CNS): > 100 µM | TGI (MDA-MB-231 breast): > 100 µM | TGI (UO-31 renal): > 100 µM | TGI (NCI-H23 lung): > 100 µM | TGI (LOX IMVI melanoma): > 100 µM | TGI (OVCAR-8 ovarian): > 100 µM | TGI (BT-549 breast): > 100 µM | TGI (HCC-2998 colon): > 100 µM | TGI (CCRF-CEM leukemia): > 100 µM | TGI (EKVX NSCLC): > 100 µM | TGI (T-47D breast): > 100 µM | TGI (NCI/ADR-RES ovarian): > 100 µM | TGI (HCT-116 colon): > 100 µM | TGI (ACHN renal): > 100 µM | TGI (SNB-75 CNS): > 100 µM | TGI (U251 CNS): > 100 µM | TGI (UACC-257 melanoma): > 100 µM
